Source: patent publication US9315494B2, “Alkyl-amide-substituted pyridyl compounds useful as modulators of IL-12, IL-23 and/or IFNα responses” (Bristol-Myers Squibb Company, priority 2012, dated 2016)
Read-outs that look alike come from different tables or passages of the source.

Key:
[1] = test system: IFNα-stimulated STAT-dependent luciferase reporter in Kit225 T cells; assay: Kit225 T cell assay, IFNα stimulated STAT-dependent luciferase reporter; type: cell-based, human
Outline: (§1)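 Stimulus was either 200 U/mL human recombinant IFNα or 20 ng/mL IL-23, applied for 5-6 h to reporter-bearing Kit225 T cells grown in RPMI/10% FBS. Luciferase expression then quantified by luminescent assay.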

[2] = test system: IL-23-stimulated STAT-dependent luciferase reporter in Kit225 T cells; assay: Kit225 T cell assay, IL-23 stimulated STAT-dependent luciferase reporter; type: cell-based, human
Outline: as §1

[3] = Kit225 T cells, 200 U/mL human recombinant IFNα, 5-6 hours, luciferase, read-out: IFNα (Kit225 T Cell Inhibition Data)
[4] = Kit225 T cells, 20 ng/mL human recombinant IL-23, 5-6 hours, luciferase, read-out: IL23 (Kit225 T Cell Inhibition Data)
[5] = Homo sapiens, KIT225, read-out: IFNα (Kit225 T Cell Inhibition Data)
[6] = Homo sapiens, KIT225, read-out: IL23 (Kit225 T Cell Inhibition Data)

SMILES | IC50 [1, 3] [nM] | IC50 [2, 4] [nM] | IC50 [1, 5] [nM] | IC50 [2, 6] [nM]
CNC(=O)c1cnc(Nc2ccc(F)cn2)cc1Nc1cccc(-c2ncn(C)n2)c1OC [Example 373] | 8.34 | 6.22 | – | –
CNC(=O)c1cnc(Nc2ccccn2)cc1Nc1cccc(-c2ncn(C)n2)c1OC [Example 374] | 6.98 | 8.36 | – | –
CNC(=O)c1cnc(Nc2ccc(C(F)(F)F)cn2)cc1Nc1cccc(-c2ncn(C)n2)c1OC [Example 375] | 9.47 | 20 | – | –
CNC(=O)c1cnc(Nc2ccc(C#N)cn2)cc1Nc1cccc(-c2ncn(C)n2)c1OC [Example 376] | 3.47 | 9.35 | – | –
CNC(=O)c1cnc(Nc2cc(C)nc(C)n2)cc1Nc1cccc(-c2ncn(CCF)n2)c1OC [Example 377] | 20 | 20 | – | –
CNC(=O)c1cnc(Nc2cc(C)nc(C)n2)cc1Nc1cccc(-c2ncn(CC(F)F)n2)c1OC [Example 378] | 10 | 50 | – | –
CNC(=O)c1cnc(Nc2cc(C)nc(C)n2)cc1Nc1cccc(-c2ncnn2CC(F)F)c1OC [Example 379] | 30 | 80 | – | –
CNC(=O)c1cnc(Nc2cc(C)nc(C)n2)cc1Nc1cccc(-c2ncn(CC(F)(F)F)n2)c1OC [Example 380] | 30 | 40 | – | –
CNC(=O)c1cnc(Nc2cc(C)nc(C)n2)cc1Nc1cccc(-c2ncnn2CC(F)(F)F)c1OC [Example 381] | 20 | 50 | – | –
CNC(=O)c1cnc(Nc2cc(C)nc(C)n2)cc1Nc1cccc(-c2ncn(CC(C)(C)O)n2)c1OC [Example 384] | 170 | 120 | – | –
CNC(=O)c1cnc(Nc2cc(C)c(F)cn2)cc1Nc1cccc(-c2ncnn2C)c1OC [Example 385] | – | – | 20 | 70
CNC(=O)c1cnc(Nc2cc(C)c(F)cn2)cc1Nc1cccc(-c2nc(C)nn2C)c1OC [Example 386] | – | – | 10 | 20
CNC(=O)c1cnc(Nc2cc(C)c(F)cn2)cc1Nc1cccc(-c2ncn(C)n2)c1OC(F)F [Example 388] | 20 | 50 | – | –
CNC(=O)c1cnc(Nc2cc(C)c(F)cn2)cc1Nc1cccc(-c2nnn[nH]2)c1OC [Example 390] | 330 | 1030 | – | –
CNC(=O)c1cnc(Nc2cc(C)c(F)cn2)cc1Nc1cccc(-c2ccnn2C)c1OC [Example 392] | 70 | 170 | – | –
CNC(=O)c1cnc(Nc2cc(C)nc(C)n2)cc1Nc1cccc(-c2ccnn2C)c1OC [Example 394] | 30 | 80 | – | –
[2H]C([2H])([2H])NC(=O)c1cnc(Nc2cc(C)nc(C)n2)cc1Nc1cccc(-c2cnn(C)c2)c1OC [Example 397] | 8.77 | 60 | – | –
[2H]C([2H])([2H])NC(=O)c1cnc(Nc2ccccn2)cc1Nc1cccc(-c2cnn(C)c2)c1OC [Example 398] | 20 | 20 | – | –
[2H]C([2H])([2H])NC(=O)c1cnc(Nc2cc(C)c(F)cn2)cc1Nc1cccc(-c2cnn(C)c2)c1OC [Example 399] | 50 | 50 | – | –
CCc1cc(C#N)ccc1Nc1cc(Nc2cc(C)nc(C)n2)ncc1C(=O)NC [Example 401] | 440 | 480 | – | –
CCc1ncccc1Nc1cc(Nc2cc(C)nc(C)n2)ncc1C(=O)NC [Example 402] | 330 | 250 | – | –

SMILES | IC50 [1, 3] [nM] | IC50 [2, 4] [nM] | IC50 [1, 5] [nM] | IC50 [2, 6] [nM]
CNC(=O)c1cnc(Nc2cc(NC)nc(C)n2)cc1Nc1cccnc1OC [Example 403] | 290 | 240 | – | –
[2H]C([2H])([2H])NC(=O)c1cnc(Nc2cc(C)nc(C)n2)cc1Nc1cccc(-c2csc(C)n2)c1OC [Example 404, 6-((2,6-dimethylpyrimidin-4-yl)amino)-4-((2-methoxy-3-(2-methylthiazol-4-yl)phenyl)amino)-N-trideuteromethylnicotinamide] | 8.63 | 4.4 | – | –
[2H]C([2H])([2H])NC(=O)c1cnc(Nc2cc(CO)ccn2)cc1Nc1cccc(-c2csc(C)n2)c1OC [Example 405] | 10 | 20 | – | –
CNC(=O)c1cnc(Nc2ccc(N3CCOCC3)cn2)cc1Nc1cc(F)cc(F)c1OC [Example 406] | 100 | 250 | – | –
CNC(=O)c1cnc(Nc2ccn(C)n2)cc1Nc1cc(F)cc(F)c1OC [Example 407] | 90 | 90 | – | –
CNC(=O)c1cnc(Nc2ccn(C(C)C)n2)cc1Nc1cc(F)cc(F)c1OC [Example 408] | 430 | 680 | – | –
CNC(=O)c1cnc(Nc2cc(C)nc(C)n2)cc1Nc1cccc(F)c1OC [Example 410] | 8.61 | 20 | – | –
CNC(=O)c1cnc(Nc2cc(C)c(F)cn2)cc1Nc1ccc(C(=O)N2CCCC2)cc1S(C)(=O)=O [Example 411] | 210 | 370 | – | –
CNC(=O)c1cnc(Nc2cc(C)c(F)cn2)cc1Nc1ccc(C(=O)N(C)C)cc1S(C)(=O)=O [Example 412] | 240 | 450 | – | –
CNC(=O)c1cnc(Nc2cc(C)c(F)cn2)cc1Nc1ccc(C(=O)N2CC(F)(F)C2)cc1S(C)(=O)=O [Example 413] | 460 | 470 | – | –
CNC(=O)c1cnc(Nc2ccc(C)nn2)cc1Nc1ccccc1S(C)(=O)=O [Example 414] | 280 | 650 | – | –
CNC(=O)c1cnc(Nc2cc(C)c(C)nn2)cc1Nc1ccccc1S(C)(=O)=O [Example 415] | 210 | 320 | – | –
CNC(=O)c1cnc(Nc2cnc(C)c(C)n2)cc1Nc1ccccc1S(C)(=O)=O [Example 416] | 80 | 90 | – | –
CNC(=O)c1cnc(Nc2ccc3cnccc3n2)cc1Nc1ccccc1S(C)(=O)=O [Example 417] | 330 | 260 | – | –
CNC(=O)c1cnc(Nc2cc(COC)nc(C)n2)cc1Nc1ccccc1S(C)(=O)=O [Example 418] | 210 | 350 | – | –
CNC(=O)c1cnc(Nc2cc(OC)ncn2)cc1Nc1ccccc1S(C)(=O)=O [Example 419] | 350 | 170 | – | –
CNC(=O)c1cnc(Nc2cc(C(C)(C)C)ncn2)cc1Nc1ccccc1S(C)(=O)=O [Example 421] | 480 | 460 | – | –
CCN(CC)CCCNc1cc(Nc2cc(Nc3ccccc3S(C)(=O)=O)c(C(=O)NC)cn2)nc(C)n1 [Example 423] | 370 | 380 | – | –
CNC(=O)c1cnc(Nc2cc(NCc3ccccc3)ncn2)cc1Nc1ccccc1S(C)(=O)=O [Example 424] | 460 | 490 | – | –
CNC(=O)c1cnc(Nc2cc(N(C)Cc3ccccc3)ncn2)cc1Nc1ccccc1S(C)(=O)=O [Example 425] | 380 | 670 | – | –
CNC(=O)c1cnc(Nc2cc(F)ccn2)cc1Nc1ccccc1NS(C)(=O)=O [Example 427] | 150 | 140 | – | –

SMILES | IC50 [1, 3] [nM] | IC50 [2, 4] [nM] | IC50 [1, 5] [nM] | IC50 [2, 6] [nM]
CNC(=O)c1cnc(Nc2ccccn2)cc1Nc1ccccc1NS(C)(=O)=O [Example 428] | 110 | 90 | – | –
CNC(=O)c1cnc(Nc2ccc(F)cn2)cc1Nc1ccccc1S(N)(=O)=O [Example 429] | 150 | 250 | – | –
CNC(=O)c1cnc(Nc2ccccn2)cc1Nc1ccccc1S(N)(=O)=O [Example 430] | 50 | 160 | – | –
CNC(=O)c1cnc(Nc2cc(C)c(F)cn2)cc1Nc1ccccc1S(N)(=O)=O [Example 431] | 80 | 40 | – | –
CNC(=O)c1cnc(Nc2cc(C)c(F)cn2)cc1Nc1ccccc1S(C)(=O)=O [Example 432] | 20 | 30 | – | –
CNC(=O)c1cnc(Nc2cnc(OC)cn2)cc1Nc1ccccc1S(C)(=O)=O [Example 433] | 220 | 290 | – | –
CNC(=O)c1cnc(Nc2ccc(OC)cn2)cc1Nc1ccccc1S(C)(=O)=O [Example 434] | 50 | 100 | – | –
CNC(=O)c1cnc(Nc2ccc(N3CCCCC3)cn2)cc1Nc1ccccc1S(C)(=O)=O [Example 435] | 50 | 30 | – | –
CNC(=O)c1cnc(Nc2ccc(N3CCC(C)(O)CC3)cn2)cc1Nc1ccccc1S(C)(=O)=O [Example 436] | 120 | 240 | – | –
CNC(=O)c1cnc(Nc2ccn(C)n2)cc1Nc1ccccc1S(C)(=O)=O [Example 437] | 190 | 360 | – | –
CNC(=O)c1cnc(Nc2cc(C)n(C)n2)cc1Nc1ccccc1S(C)(=O)=O [Example 439] | 110 | 210 | – | –
CNC(=O)c1cnc(Nc2ccc(C#N)c(C)n2)cc1Nc1ccccc1S(C)(=O)=O [Example 440] | 260 | 250 | – | –
CNC(=O)c1cnc(Nc2ccc(N3CCCC3=O)cn2)cc1Nc1ccccc1S(C)(=O)=O [Example 441] | 240 | 460 | – | –
CNC(=O)c1cnc(Nc2ccn(C(C)C)n2)cc1Nc1ccccc1S(C)(=O)=O [Example 442] | 130 | 450 | – | –
CNC(=O)c1cnc(Nc2cc(C)cc(C)n2)cc1Nc1ccccc1S(C)(=O)=O [Example 443] | 20 | 50 | – | –
CCOc1ccc(Nc2cc(Nc3ccccc3S(C)(=O)=O)c(C(=O)NC)cn2)nn1 [Example 444] | 180 | 250 | – | –
CNC(=O)c1cnc(Nc2cc(C3CCC3)[nH]n2)cc1Nc1ccccc1S(C)(=O)=O [Example 445] | 320 | 530 | – | –
CNC(=O)c1cnc(Nc2ccn(-c3ccc(Cl)cc3)n2)cc1Nc1ccccc1S(C)(=O)=O [Example 446] | 180 | 150 | – | –
CNC(=O)c1cnc(Nc2cc(C)c(C#N)cn2)cc1Nc1ccccc1S(C)(=O)=O [Example 447] | 160 | 200 | – | –
